For three molecules, mass density and refractive index results are on record in the NIST ThermoML archive (doi:10.1021/je900327x).

The conditions of data set [1]: 298.15 K; 101.33 kPa; Liquid; Vibrating tube method.
A short description of data set [2]: refractive index (Na D-line) (dimensionless). As to conditions: 298.15 K; 101.33 kPa; Liquid; Standard Abbe refractometry.

Numbers after ± are expanded uncertainties.

Consider `CC(C)O` [propan-2-ol], for which, in data set [1], the mass density (in general, mass per unit of volume) turned out to be 781.01 ± 0.2 kg/m3. Further, the refractive index (usually a measure of how strongly the sample bends light) in data set [2] was 1.37509 ± 0.00068.

For `C1COCO1` [1,3-dioxolane], the mass density in data set [1] came out at 1058.87 ± 0.15 kg/m3. Besides, in data set [2], the refractive index is given as 1.39779 ± 0.00068.

With `CC(C)CC(C)(C)C` [2,2,4-trimethylpentane], the mass density in data set [1] is 687.73 ± 0.21 kg/m3. Besides, the refractive index in data set [2] is reported as 1.38887 ± 0.00068.
